Assay results: patent US20160212997A1, “AGRICULTURAL CHEMICALS” (REDAG CROP PROTECTION LTD, priority 2013, published 2016)
Read-outs that look alike come from different tables or passages of the source.

Columns and labels:
Format in all cases: in vivo
[1] = system: caterpillars, a mixture of Mamestra brassicae and Lacanobia oleracea; test: Potter tower spray on caterpillars, knockdown and mortality; conditions: Caterpillars, read-out: Average of % corrected affected; for pest or weed control at 0.1 % strength: 0.1 % w/v; for pest or weed control at 0.00625 % strength: 0.00625 % w/v; for pest or weed control at 0.0125 % strength: 0.0125 % w/v; for pest or weed control at 0.025 % strength: 0.025 % w/v; for pest or weed control at 0.05 % strength: 0.05 % w/v
Text: (§1) Myzus persicae, Cabbage moth, Mamestra brassicae, diamond back moths, Plutella xylostella, red spider mites, Tetranychus urticae, whitefly, Trialeurodes vaporariorum, were obtained from specified laboratory cultures. Mixed sex and age aphids and mites, moth larvae and whitefly scale infested leaves were used in the experiments. Environmental conditions were closely monitored and recorded and were within the optimal range of the target species.
(§2) The compounds were screened at a range of five concentrations, diluted in DMSO. Some of the compounds were screened against aphids, whitefly and red spider mites and other compounds were screened against cabbage moth, and diamond black moths. A carrier only and an untreated control will also be conducted. Treatments were applied directly onto the insects within Petri dishes, using a potter tower.
(§3) Twenty mites and ten aphids, scales and moth larvae were placed within a Petri dish, lined with a suitable leaf disc on a damp cotton wool pad. Scales were already on leaves. The Petri dishes were then sprayed using a potter tower. The number of knocked down and anthropods were assessed at 24 and 48 hours post treatment. Five replicates were be performed for each treatment, for each species.
(§4) For Tables 2, 4, 5 and 6, the compounds were diluted in DMSO containing 1% v/v Tween 20™. For Tables 2, 4, 5 and 6, the caterpillars were a mixture of Mamestra brassicae and Lacanobia oleracea.

[2] = system: red spider mites, Tetranychus urticae; test: Potter tower spray on red spider mites, knockdown and mortality; conditions: for percentage control: Spider mites; for activity against spider mites compared with the reference compound: versus flupyradifurone or sulfoxaflor respectively, tables 1 and 3
Text: (§5) The compounds were screened for insecticidal efficacy against aphids, Myzus persicae, Cabbage moth, Mamestra brassicae, diamond black moths, Plutella xylostella, red spider mites, Tetranychus urticae, whitefly, Trialeurodes vaporariorum, in terms of knockdown and mortality.
as §1, §2, §3

[3] = system: aphids, Myzus persicae; test: Potter tower spray on aphids, knockdown and mortality; conditions: Aphids; for pest or weed control at 0.1 % strength: Myzus persicae, 0.1 % w/v, read-out: Average of % corrected affected
Text: as §5, §1, §2, §3, §4

[4] = 24 h, 24 hours post application
[5] = 48 h, 48 hours post application

CC(=O)N=S(C)(=O)C(C)c1ccc(C(F)(F)F)nc1 (stereo not drawn) [Compound 12, N-[Methyl-oxo-[1-[6-(trifluoromethyl)-3-pyridyl]ethyl]-λ^6-sulfanylidene]acetamide]
pest or weed control at 0.1 % strength [1, 4]: 1 to 19% | pest or weed control at 0.00625 % strength [1, 5]: 1 to 19% | pest or weed control at 0.0125 % strength [1, 5]: 1 to 19% | pest or weed control at 0.025 % strength [1, 5]: 1 to 19% | pest or weed control at 0.05 % strength [1, 5]: 1 to 19% | pest or weed control at 0.1 % strength [1, 5]: 1 to 19% | percentage control ([2]; 12.5 g/ha, 24 h): D (A percentage control of from 20 to 39 is indicated by the letter D) | percentage control ([2]; 12.5 g/ha, 48 h): D (A percentage control of from 20 to 39 is indicated by the letter D) | percentage control ([2]; 25 g/ha, 24 h): D (A percentage control of from 20 to 39 is indicated by the letter D) | percentage control ([2]; 25 g/ha, 48 h): D (A percentage control of from 20 to 39 is indicated by the letter D) | percentage control ([2]; 50 g/ha, 24 h): C (A percentage control of from 40 to 59 is indicated by the letter C) | percentage control ([2]; 50 g/ha, 48 h): C (A percentage control of from 40 to 59 is indicated by the letter C) | percentage control ([2]; 100 g/ha, 24 h): B (A percentage control of from 60 to 79 is indicated by the letter B) | percentage control ([2]; 100 g/ha, 48 h): B (A percentage control of from 60 to 79 is indicated by the letter B) | percentage control ([2]; 200 g/ha, 24 h): B (A percentage control of from 60 to 79 is indicated by the letter B) | percentage control ([2]; 200 g/ha, 48 h): A (A percentage control of from 80 to 100 is indicated by the letter A) | activity against spider mites compared with the reference compound [2]: more active than the reference compound | percentage control ([3]; 12.5 g/ha, 24 h): E (A percentage control of from 1 to 19 is indicated by the letter E) | percentage control ([3]; 12.5 g/ha, 48 h): D (A percentage control of from 20 to 39 is indicated by the letter D) | percentage control ([3]; 25 g/ha, 24 h): E (A percentage control of from 1 to 19 is indicated by the letter E) | percentage control ([3]; 25 g/ha, 48 h): D (A percentage control of from 20 to 39 is indicated by the letter D) | percentage control ([3]; 50 g/ha, 24 h): E (A percentage control of from 1 to 19 is indicated by the letter E) | percentage control ([3]; 50 g/ha, 48 h): C (A percentage control of from 40 to 59 is indicated by the letter C) | percentage control ([3]; 100 g/ha, 24 h): E (A percentage control of from 1 to 19 is indicated by the letter E) | percentage control ([3]; 100 g/ha, 48 h): D (A percentage control of from 20 to 39 is indicated by the letter D) | percentage control ([3]; 200 g/ha, 24 h): E (A percentage control of from 1 to 19 is indicated by the letter E) | percentage control ([3]; 200 g/ha, 48 h): D (A percentage control of from 20 to 39 is indicated by the letter D) | pest or weed control at 0.1 % strength [3, 4]: 20 to 39% | pest or weed control at 0.1 % strength [3, 5]: 40 to 59%

COC(=O)N=S(C)(=O)C(C)c1ccc(C(F)(F)F)nc1 (stereo not drawn) [Compound 13, Methyl N-[methyl-oxo-[1-[6-(trifluoromethyl)-3-pyridyl]ethyl]-λ^6-sulfanylidene]carbamate]
pest or weed control at 0.1 % strength [1, 4]: 1 to 19% | pest or weed control at 0.00625 % strength [1, 5]: 1 to 19% | pest or weed control at 0.0125 % strength [1, 5]: 1 to 19% | pest or weed control at 0.025 % strength [1, 5]: 1 to 19% | pest or weed control at 0.05 % strength [1, 5]: 1 to 19% | pest or weed control at 0.1 % strength [1, 5]: 20 to 39% | percentage control ([2]; 12.5 g/ha, 24 h): D (A percentage control of from 20 to 39 is indicated by the letter D) | percentage control ([2]; 12.5 g/ha, 48 h): B (A percentage control of from 60 to 79 is indicated by the letter B) | percentage control ([2]; 25 g/ha, 24 h): D (A percentage control of from 20 to 39 is indicated by the letter D) | percentage control ([2]; 25 g/ha, 48 h): C (A percentage control of from 40 to 59 is indicated by the letter C) | percentage control ([2]; 50 g/ha, 24 h): D (A percentage control of from 20 to 39 is indicated by the letter D) | percentage control ([2]; 50 g/ha, 48 h): B (A percentage control of from 60 to 79 is indicated by the letter B) | percentage control ([2]; 100 g/ha, 24 h): D (A percentage control of from 20 to 39 is indicated by the letter D) | percentage control ([2]; 100 g/ha, 48 h): B (A percentage control of from 60 to 79 is indicated by the letter B) | percentage control ([2]; 200 g/ha, 24 h): D (A percentage control of from 20 to 39 is indicated by the letter D) | percentage control ([2]; 200 g/ha, 48 h): B (A percentage control of from 60 to 79 is indicated by the letter B) | activity against spider mites compared with the reference compound [2]: more active than the reference compound | percentage control ([3]; 12.5 g/ha, 24 h): E (A percentage control of from 1 to 19 is indicated by the letter E) | percentage control ([3]; 12.5 g/ha, 48 h): D (A percentage control of from 20 to 39 is indicated by the letter D) | percentage control ([3]; 25 g/ha, 24 h): E (A percentage control of from 1 to 19 is indicated by the letter E) | percentage control ([3]; 25 g/ha, 48 h): D (A percentage control of from 20 to 39 is indicated by the letter D) | percentage control ([3]; 50 g/ha, 24 h): E (A percentage control of from 1 to 19 is indicated by the letter E) | percentage control ([3]; 50 g/ha, 48 h): D (A percentage control of from 20 to 39 is indicated by the letter D) | percentage control ([3]; 100 g/ha, 24 h): E (A percentage control of from 1 to 19 is indicated by the letter E) | percentage control ([3]; 100 g/ha, 48 h): E (A percentage control of from 1 to 19 is indicated by the letter E) | percentage control ([3]; 200 g/ha, 24 h): D (A percentage control of from 20 to 39 is indicated by the letter D) | percentage control ([3]; 200 g/ha, 48 h): C (A percentage control of from 40 to 59 is indicated by the letter C) | pest or weed control at 0.1 % strength [3, 4]: 20 to 39% | pest or weed control at 0.1 % strength [3, 5]: 20 to 39%

O=C1C=C(N(Cc2ccc(Cl)nc2)CC(F)F)CO1 [Compound 1, 3-[(6-Chloro-3-pyridyl)methyl-(2,2-difluoroethyl)amino]-2H-furan-5-one, reference compound]
percentage control ([2]; 25 g/ha, 24 h): D (A percentage control of from 20 to 39 is indicated by the letter D) | percentage control ([2]; 25 g/ha, 48 h): D (A percentage control of from 20 to 39 is indicated by the letter D) | percentage control ([2]; 50 g/ha, 24 h): D (A percentage control of from 20 to 39 is indicated by the letter D) | percentage control ([2]; 50 g/ha, 48 h): D (A percentage control of from 20 to 39 is indicated by the letter D) | percentage control ([2]; 100 g/ha, 24 h): E (A percentage control of from 1 to 19 is indicated by the letter E) | percentage control ([2]; 100 g/ha, 48 h): D (A percentage control of from 20 to 39 is indicated by the letter D) | percentage control ([2]; 200 g/ha, 24 h): D (A percentage control of from 20 to 39 is indicated by the letter D) | percentage control ([2]; 200 g/ha, 48 h): D (A percentage control of from 20 to 39 is indicated by the letter D) | percentage control ([2]; 400 g/ha, 24 h): D (A percentage control of from 20 to 39 is indicated by the letter D) | percentage control ([2]; 400 g/ha, 48 h): C (A percentage control of from 40 to 59 is indicated by the letter C) | percentage control ([3]; 25 g/ha, 24 h): E (A percentage control of from 1 to 19 is indicated by the letter E) | percentage control ([3]; 25 g/ha, 48 h): C (A percentage control of from 40 to 59 is indicated by the letter C) | percentage control ([3]; 50 g/ha, 24 h): D (A percentage control of from 20 to 39 is indicated by the letter D) | percentage control ([3]; 50 g/ha, 48 h): A (A percentage control of from 80 to 100 is indicated by the letter A) | percentage control ([3]; 100 g/ha, 24 h): D (A percentage control of from 20 to 39 is indicated by the letter D) | percentage control ([3]; 100 g/ha, 48 h): A (A percentage control of from 80 to 100 is indicated by the letter A) | percentage control ([3]; 200 g/ha, 24 h): C (A percentage control of from 40 to 59 is indicated by the letter C) | percentage control ([3]; 200 g/ha, 48 h): A (A percentage control of from 80 to 100 is indicated by the letter A) | percentage control ([3]; 400 g/ha, 24 h): B (A percentage control of from 60 to 79 is indicated by the letter B) | percentage control ([3]; 400 g/ha, 48 h): A (A percentage control of from 80 to 100 is indicated by the letter A)
